This is an account of results in patent US20050164210A1, “Regulated polymerase III expression systems and related methods” (priority 2004, published 2005).

For this assay, the system named is VgEcR and RXR. The assay can be described thus: murA induction of the E/GRE/Hsmin promoter: GFP+ cells by fluorescent microscopy and FACS, Western blot of GAL4-Oct-2Q(Q→A) and EGFP. The format is cell-based. Conditions: 72 h. On the procedure:
High titer virus were produced by calcium phosphate transfection of retroviral DNA constructs into the LinX amphotrophic retroviral packaging cell line (17) followed by incubation with dexamethasone/butyrate (1 μM/ml) of packagers at 32° C. for 3 days. Infections were carried out by harvesting supernatants from LinX packagers, filtered through a […] membrane (Millipore), followed by the addition of polybrene (8 μM) to supernatants, finally overlaying onto actively dividing host cells (70% confluent). Cells were gently spun at room temperature for 30 min, incubated at 32° C. for 6 h. […]
Western blot analysis and antibodies. […] Signal intensities were determined after background corrections by using Alpha-Imager 2000 Documentation and Analysis Software (Alpha Innotech, San Leandro, Calif.). The percentage reduction in band intensity for each concentration of murA was calculated relative to the uninduced samples and normalized against β-tubulin.
The ecdysone inducible system is comprised of three Moloney murine leukemia virus (MoMLV)-based retroviral vectors, the two vectors expressing nuclear receptors/transcription factors VgEcR and RXR, and a third construct, pEind-RNAi expressing a chimeric transactivator GAL4-Oct-2^Q(Q→A), and an internal ribosomal entry site (IRES) linked enhanced green fluorescence protein (EGFP) under an inducible promoter E/GRE/Hsmin (FIG. 1A). […]
Background: Immunoblotting shows a protein as a band on a membrane.

As for `CC(C)CC[C@@H](O)[C@](C)(O)[C@H]1CC[C@@]2(O)C3=CC(=O)[C@]4(O)C[C@@H](O)[C@@H](O)C[C@]4(C)[C@H]3[C@H](O)C[C@]12C` [murA, muristerone A], the “Levels of GAL4-Oct-2Q(Q→A) and EGFP protein (Western blot)” value (5 μM murA, versus untreated controls) was “increased levels”. For the same compound, under “sorted stable cells, 0.5 μM murA (microscopy), 5 μM murA (FACS)”, the “GFP+ cells following induction with murA” value is reported as over 95%.
